From patent US9656996B2, “Fused heterocyclic compound, preparation method therefor, pharmaceutical composition, and uses thereof” (SHANGHAI YINGLI PHARMACEUTICAL CO., LTD., priority 2013, dated 2017)

Experiments:
PI3Kα = PI3Kα (Homo sapiens (Human), UniProt P42336); test: PI3Kα enzymatic inhibitory activity IC50 assay; assay type: biochemical; conditions: selectivity ratio
Protocol: (§1) 1. Buffer preparation: 50 mM HEPES, pH 7.5, 3 mM MgCl2, 1 mM EGTA, 100 mM NaCl, 0.03% CHAPS.
(§2) 2. The compound was formulated in 100% DMSO in a concentration gradient, and deposited to a 384-well plate with a final DMSO concentration of 1%.
(§3) 3. PI3Kα, PI3Kδ, PI3Kβ and PI3Kγ enzymes (purchased from EMD Millipore) were diluted to the optimal concentration with the following buffer: 50 mM HEPES, pH 7.5, 3 mM MgCl2, 1 mM EGTA, 100 mM NaCl, 0.03% CHAPS, 2 mM DTT, transferred to a 384-well plate and incubated with the compound for a certain time.
(§4) 4. The substrate was diluted to an optimal concentration with the following buffer: 50 mM HEPES, pH 7.5, 3 mM MgCl2, 1 mM EGTA, 100 mM NaCl, 0.03% CHAPS, 2 mM DTT, 50 μM PIP2, 25 μM ATP and added to the 384-well plate to initiate the reaction. PI3Kα, PI3Kβ and PI3Kγ were allowed to react for 1 h at room temperature, and PI3Kδ reacted for 2 hours at room temperature. Another 10 μL ADP-Glo Detection Reagent also needed to be added for PI3Kβ and PI3Kγ, and then equilibrated at room temperature for 30 minutes.
(§5) 5. Luminescence was read by using Flexstation, and the inhibition rate was calculated as the average value of two tests.

PI3Kδ = PI3Kδ (Homo sapiens (Human), UniProt O00329); test: PI3Kδ enzymatic inhibitory activity IC50 assay; assay type: biochemical; conditions: luminescence readout, 25 μM ATP, 50 μM PIP2, 2 hours at room temperature
Sequence of PI3Kδ (O00329 whole entry, species assumed): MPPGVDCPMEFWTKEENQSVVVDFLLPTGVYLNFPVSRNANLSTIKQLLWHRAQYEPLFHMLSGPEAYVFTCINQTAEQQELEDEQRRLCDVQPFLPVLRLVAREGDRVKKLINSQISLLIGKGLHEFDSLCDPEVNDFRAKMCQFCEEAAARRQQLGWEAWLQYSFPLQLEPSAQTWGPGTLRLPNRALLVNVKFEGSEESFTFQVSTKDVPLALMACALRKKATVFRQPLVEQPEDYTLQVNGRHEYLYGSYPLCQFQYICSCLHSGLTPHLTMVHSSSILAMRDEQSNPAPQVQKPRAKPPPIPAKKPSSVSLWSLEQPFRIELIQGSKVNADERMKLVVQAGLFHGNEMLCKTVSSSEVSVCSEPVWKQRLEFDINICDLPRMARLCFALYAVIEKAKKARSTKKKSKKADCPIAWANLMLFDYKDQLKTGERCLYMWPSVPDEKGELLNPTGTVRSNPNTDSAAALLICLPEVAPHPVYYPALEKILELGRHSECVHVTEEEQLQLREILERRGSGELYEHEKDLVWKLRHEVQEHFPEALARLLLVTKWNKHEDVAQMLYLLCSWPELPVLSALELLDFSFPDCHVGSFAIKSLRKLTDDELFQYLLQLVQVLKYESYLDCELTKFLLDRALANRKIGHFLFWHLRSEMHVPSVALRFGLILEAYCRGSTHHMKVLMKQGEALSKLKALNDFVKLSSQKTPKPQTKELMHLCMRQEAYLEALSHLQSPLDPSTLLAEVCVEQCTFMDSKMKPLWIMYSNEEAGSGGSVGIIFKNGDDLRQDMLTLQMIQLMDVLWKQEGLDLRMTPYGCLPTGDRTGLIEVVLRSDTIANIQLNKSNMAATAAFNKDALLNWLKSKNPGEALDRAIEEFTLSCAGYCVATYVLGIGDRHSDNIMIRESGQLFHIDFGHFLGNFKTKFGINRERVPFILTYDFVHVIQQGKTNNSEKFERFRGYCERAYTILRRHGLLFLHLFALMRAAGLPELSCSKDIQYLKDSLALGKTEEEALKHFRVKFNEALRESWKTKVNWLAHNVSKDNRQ
Sequence of PI3Kδ (P27986 whole entry partner, species assumed): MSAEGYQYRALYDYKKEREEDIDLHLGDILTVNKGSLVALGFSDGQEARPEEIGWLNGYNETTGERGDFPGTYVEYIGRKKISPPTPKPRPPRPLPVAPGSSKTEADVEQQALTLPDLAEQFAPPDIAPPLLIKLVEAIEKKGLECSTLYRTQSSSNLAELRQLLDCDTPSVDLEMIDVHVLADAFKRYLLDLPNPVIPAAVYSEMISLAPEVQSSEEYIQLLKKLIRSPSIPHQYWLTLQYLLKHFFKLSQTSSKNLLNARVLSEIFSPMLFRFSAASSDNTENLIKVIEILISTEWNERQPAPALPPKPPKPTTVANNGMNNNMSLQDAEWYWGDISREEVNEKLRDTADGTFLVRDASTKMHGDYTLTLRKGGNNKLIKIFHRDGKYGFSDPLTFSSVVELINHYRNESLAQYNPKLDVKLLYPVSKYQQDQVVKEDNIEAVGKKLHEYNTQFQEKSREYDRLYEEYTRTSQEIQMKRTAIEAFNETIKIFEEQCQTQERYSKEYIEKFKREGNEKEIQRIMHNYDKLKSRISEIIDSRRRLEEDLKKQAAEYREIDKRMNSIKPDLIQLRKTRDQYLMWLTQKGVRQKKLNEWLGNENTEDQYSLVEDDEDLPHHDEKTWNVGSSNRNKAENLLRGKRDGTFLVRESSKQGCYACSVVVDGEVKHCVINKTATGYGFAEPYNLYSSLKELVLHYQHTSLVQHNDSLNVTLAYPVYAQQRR
Protocol: as §1, §2, §3, §4, §5

PI3Kβ = PI3Kβ (Homo sapiens (Human), UniProt P42338); test: PI3Kβ enzymatic inhibitory activity IC50 assay; assay type: biochemical; conditions: selectivity ratio
Sequence of PI3Kβ (P42338 whole entry, species assumed): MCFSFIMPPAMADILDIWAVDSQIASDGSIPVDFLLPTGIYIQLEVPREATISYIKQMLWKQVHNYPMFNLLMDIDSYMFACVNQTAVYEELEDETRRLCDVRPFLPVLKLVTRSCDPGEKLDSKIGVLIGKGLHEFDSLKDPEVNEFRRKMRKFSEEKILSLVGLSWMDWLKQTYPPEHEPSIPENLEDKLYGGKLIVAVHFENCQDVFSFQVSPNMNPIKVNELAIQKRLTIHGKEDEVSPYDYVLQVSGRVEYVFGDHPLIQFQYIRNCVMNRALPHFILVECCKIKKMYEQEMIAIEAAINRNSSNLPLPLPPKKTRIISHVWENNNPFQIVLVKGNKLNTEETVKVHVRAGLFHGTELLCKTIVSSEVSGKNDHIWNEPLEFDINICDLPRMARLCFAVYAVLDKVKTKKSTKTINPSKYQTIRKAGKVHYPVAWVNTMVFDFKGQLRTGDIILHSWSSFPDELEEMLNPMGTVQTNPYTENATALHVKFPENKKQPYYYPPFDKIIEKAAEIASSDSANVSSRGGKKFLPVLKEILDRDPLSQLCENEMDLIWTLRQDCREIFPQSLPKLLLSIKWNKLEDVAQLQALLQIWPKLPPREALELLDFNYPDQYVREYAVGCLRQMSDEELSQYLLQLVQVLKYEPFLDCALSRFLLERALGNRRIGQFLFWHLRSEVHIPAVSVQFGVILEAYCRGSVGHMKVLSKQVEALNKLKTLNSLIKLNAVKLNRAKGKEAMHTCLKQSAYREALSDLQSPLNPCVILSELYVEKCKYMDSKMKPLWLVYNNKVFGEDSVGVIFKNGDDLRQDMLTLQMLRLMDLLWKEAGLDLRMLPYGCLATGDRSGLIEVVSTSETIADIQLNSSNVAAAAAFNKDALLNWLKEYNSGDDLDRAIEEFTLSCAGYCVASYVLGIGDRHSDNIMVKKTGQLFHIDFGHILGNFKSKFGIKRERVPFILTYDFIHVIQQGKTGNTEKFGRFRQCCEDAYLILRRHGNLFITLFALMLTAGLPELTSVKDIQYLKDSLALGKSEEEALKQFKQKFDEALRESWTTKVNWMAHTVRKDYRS
Sequence of PI3Kβ (P27986 whole entry partner, species assumed): as the sequence (P27986 whole entry partner, species assumed) above
Protocol: as §1, §2, §3, §4, §5

PI3Kγ = PI3Kγ (Homo sapiens (Human), UniProt P48736); test: PI3Kγ enzymatic inhibitory activity IC50 assay; assay type: biochemical; conditions: selectivity ratio
Sequence of PI3Kγ (P48736 whole entry, species assumed): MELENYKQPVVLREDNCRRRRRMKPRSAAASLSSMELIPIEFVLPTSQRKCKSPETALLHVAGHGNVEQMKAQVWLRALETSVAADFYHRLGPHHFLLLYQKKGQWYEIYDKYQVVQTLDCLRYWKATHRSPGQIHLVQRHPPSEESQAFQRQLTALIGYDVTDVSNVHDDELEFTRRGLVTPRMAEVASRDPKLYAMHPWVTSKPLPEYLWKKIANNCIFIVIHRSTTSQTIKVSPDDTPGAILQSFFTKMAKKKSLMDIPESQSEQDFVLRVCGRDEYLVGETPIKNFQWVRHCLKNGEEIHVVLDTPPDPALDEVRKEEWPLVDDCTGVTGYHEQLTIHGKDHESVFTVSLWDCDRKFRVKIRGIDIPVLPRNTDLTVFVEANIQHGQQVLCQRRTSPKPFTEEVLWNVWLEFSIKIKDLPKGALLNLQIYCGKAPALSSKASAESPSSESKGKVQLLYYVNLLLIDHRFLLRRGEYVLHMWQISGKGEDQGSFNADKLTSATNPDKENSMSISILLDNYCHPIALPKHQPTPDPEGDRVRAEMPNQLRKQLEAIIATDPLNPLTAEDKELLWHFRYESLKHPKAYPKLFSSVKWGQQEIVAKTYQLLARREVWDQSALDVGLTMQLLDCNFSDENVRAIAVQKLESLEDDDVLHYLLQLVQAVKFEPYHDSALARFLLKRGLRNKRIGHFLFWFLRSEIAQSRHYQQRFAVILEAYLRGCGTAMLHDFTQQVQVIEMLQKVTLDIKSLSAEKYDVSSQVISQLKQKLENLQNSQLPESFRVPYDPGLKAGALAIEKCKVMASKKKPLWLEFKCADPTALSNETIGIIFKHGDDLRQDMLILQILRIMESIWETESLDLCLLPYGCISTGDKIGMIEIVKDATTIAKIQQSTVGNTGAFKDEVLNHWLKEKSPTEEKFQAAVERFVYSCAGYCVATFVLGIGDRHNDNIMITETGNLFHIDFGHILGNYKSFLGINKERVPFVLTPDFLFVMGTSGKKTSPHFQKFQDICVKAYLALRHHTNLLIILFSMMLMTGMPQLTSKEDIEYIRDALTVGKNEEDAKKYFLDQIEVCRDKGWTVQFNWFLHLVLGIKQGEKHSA
Protocol: as §1, §2, §3, §4, §5

[1] = system: Raji cell TNF-α generation; test: Inhibition of human Raji cell TNF-α generation induced by human IgM (ELISA); assay type: cell-based; conditions: Raji cells, IgM stimulation, 24 hours
Protocol: 1. Raji cell line (human Burkitt's lymphoma origin) (ATCC, Cat#CCL-86) was used.
2. Raji cells were applied onto the 96-well plate with 1×10^5/well.
3. The compounds to be screened were diluted to the corresponding test concentration, and added to the cell culture system 30 minutes prior to IgM stimulation.
4. 10 µg/ml IgM monoclonal antibody (JACKSON, Cat#109-006-129) was added to the cell culture system in order to stimulate the cells generating TNF-α.
5. After 24 hours, the amount of TNF-α produced by the cell line was determined by ELISA.
6. The inhibition rates at each concentration of the compound were calculated and plotted to calculate 50% inhibition rate (IC50), and the specific results were shown in table 3.

Sequence of PI3Kα (P42336 whole entry, species assumed): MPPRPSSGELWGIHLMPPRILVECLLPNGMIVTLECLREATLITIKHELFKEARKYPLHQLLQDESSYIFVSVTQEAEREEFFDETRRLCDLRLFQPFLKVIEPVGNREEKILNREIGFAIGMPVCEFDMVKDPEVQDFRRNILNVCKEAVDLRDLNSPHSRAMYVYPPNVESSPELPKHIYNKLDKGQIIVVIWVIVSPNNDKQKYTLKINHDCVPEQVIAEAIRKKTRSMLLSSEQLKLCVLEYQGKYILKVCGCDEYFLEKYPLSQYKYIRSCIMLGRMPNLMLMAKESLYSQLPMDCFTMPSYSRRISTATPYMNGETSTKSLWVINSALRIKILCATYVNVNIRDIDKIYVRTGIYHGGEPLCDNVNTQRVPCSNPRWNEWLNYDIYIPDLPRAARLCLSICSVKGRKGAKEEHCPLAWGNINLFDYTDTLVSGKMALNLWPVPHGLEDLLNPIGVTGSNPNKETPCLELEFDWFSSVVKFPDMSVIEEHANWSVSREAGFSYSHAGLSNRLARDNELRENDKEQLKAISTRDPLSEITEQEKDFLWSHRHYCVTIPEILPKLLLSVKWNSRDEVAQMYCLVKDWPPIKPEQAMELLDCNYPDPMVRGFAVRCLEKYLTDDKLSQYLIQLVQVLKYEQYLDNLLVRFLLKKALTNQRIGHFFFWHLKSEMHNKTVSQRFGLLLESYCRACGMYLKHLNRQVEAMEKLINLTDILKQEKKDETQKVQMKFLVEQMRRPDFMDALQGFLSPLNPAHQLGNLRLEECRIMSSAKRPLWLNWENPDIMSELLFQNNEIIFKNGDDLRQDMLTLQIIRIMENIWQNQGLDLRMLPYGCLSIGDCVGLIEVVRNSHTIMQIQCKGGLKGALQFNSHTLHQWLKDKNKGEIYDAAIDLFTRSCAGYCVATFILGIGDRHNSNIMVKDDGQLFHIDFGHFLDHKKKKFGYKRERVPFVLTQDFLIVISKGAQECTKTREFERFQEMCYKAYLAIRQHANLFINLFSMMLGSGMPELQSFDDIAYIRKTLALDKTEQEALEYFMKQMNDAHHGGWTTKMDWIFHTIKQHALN
Sequence of PI3Kα (P27986 whole entry partner, species assumed): as the sequence (P27986 whole entry partner, species assumed) above

SMILES: COc1ncc(-c2nc(N3CCOCC3)c3sc(CN4CCC(N(C)C(C)C)CC4)c(C)c3n2)cc1NS(C)(=O)=O [Compound 16]
- α/δ (ratio of IC50 values against PI3Kα to PI3Kδ) (PI3Kα): 42
- IC50 (PI3Kδ): 15 nM
- β/δ (ratio of IC50 values against PI3Kβ to PI3Kδ) (PI3Kβ): 341
- γ/δ (ratio of IC50 values against PI3Kγ to PI3Kδ) (PI3Kγ): >650
- IC50 [1]: 20.1 nM

SMILES: COc1ncc(-c2nc(N3CCOCC3)nc3c(CN4CC[C@@H](N5CCCCC5=O)C4)cc(F)cc23)cc1NS(C)(=O)=O [Compound 24]
- α/δ (ratio of IC50 values against PI3Kα to PI3Kδ) (PI3Kα): 45
- IC50 (PI3Kδ): 21 nM

SMILES: CS(=O)(=O)N1CCN(Cc2cccc3c(-c4cccc5[nH]ncc45)nc(N4CCOCC4)nc23)CC1 [Compound 6]
- α/δ (ratio of IC50 values against PI3Kα to PI3Kδ) (PI3Kα): 2.4
- IC50 (PI3Kδ): 457 nM

SMILES: COc1ncc(-c2nc(N3CCOCC3)nc3c(O[C@@H]4CCOC4)cc(F)cc23)cc1NS(C)(=O)=O [Compound 30]
- α/δ (ratio of IC50 values against PI3Kα to PI3Kδ) (PI3Kα): 15
- IC50 (PI3Kδ): 41 nM
- IC50 [1]: 352 nM

SMILES: COc1ncc(-c2nc(N3CCOCC3)nc3c(OC4CCOCC4)cc(F)cc23)cc1NS(C)(=O)=O [Compound 32]
- α/δ (ratio of IC50 values against PI3Kα to PI3Kδ) (PI3Kα): 23
- IC50 (PI3Kδ): 38 nM

SMILES: COc1ncc(-c2nc(N3CCOCC3)nc3c(OC4CCC(N5CCCCC5)CC4)cc(F)cc23)cc1NS(C)(=O)=O (centres unmarked) [Compound 36]
- α/δ (ratio of IC50 values against PI3Kα to PI3Kδ) (PI3Kα): 239
- IC50 (PI3Kδ): 17 nM
- β/δ (ratio of IC50 values against PI3Kβ to PI3Kδ) (PI3Kβ): 366
- γ/δ (ratio of IC50 values against PI3Kγ to PI3Kδ) (PI3Kγ): >588
- IC50 [1]: 27 nM

SMILES: COc1ncc(-c2nc(N3CCOCC3)nc3c(CN4CCC(N5CCCCC5)CC4)cccc23)cc1NS(C)(=O)=O [Compound 3]
- α/δ (ratio of IC50 values against PI3Kα to PI3Kδ) (PI3Kα): 119
- IC50 (PI3Kδ): 31 nM
- IC50 [1]: 31.7 nM

SMILES: COc1ncc(-c2nc(N3CCOCC3)nc3c(OC4CN(C(=O)C(C)C)C4)cc(F)cc23)cc1NS(C)(=O)=O [Compound 39]
- α/δ (ratio of IC50 values against PI3Kα to PI3Kδ) (PI3Kα): 58
- IC50 (PI3Kδ): 22 nM
- IC50 [1]: 108 nM

SMILES: COc1ncc(-c2nc(N3CCOCC3)nc3c(CN4CCN(C)C(=O)C4)cc(F)cc23)cc1NS(C)(=O)=O [Compound 29]
- α/δ (ratio of IC50 values against PI3Kα to PI3Kδ) (PI3Kα): 22
- IC50 (PI3Kδ): 19 nM

SMILES: COc1ncc(-c2nc(N3CCOCC3)c3nc(OC4CCC(N5CCCC5)CC4)n(C)c3n2)cc1NS(C)(=O)=O (centres unmarked) [Compound 21]
- α/δ (ratio of IC50 values against PI3Kα to PI3Kδ) (PI3Kα): 91
- IC50 (PI3Kδ): 15.3 nM

SMILES: COc1ncc(-c2nc(N3CCOCC3)nc3c(OCCN4CCCCC4)cc(F)cc23)cc1NS(C)(=O)=O [Compound 33]
- α/δ (ratio of IC50 values against PI3Kα to PI3Kδ) (PI3Kα): 113
- IC50 (PI3Kδ): 47.1 nM
- IC50 [1]: 260 nM

SMILES: COc1ncc(-c2nc(N3CCOCC3)nc3c(CN4CCC(N5CCCC5)CC4)cc(F)cc23)cc1NS(C)(=O)=O [Compound 8]
- α/δ (ratio of IC50 values against PI3Kα to PI3Kδ) (PI3Kα): 292
- IC50 (PI3Kδ): 9.8 nM
- IC50 [1]: 28.4 nM

SMILES: COc1ncc(-c2nc(N3CCOCC3)nc3c(OC4CCC(C(C)(C)O)CC4)cc(F)cc23)cc1NS(C)(=O)=O (centres unmarked) [Compound 28]
- α/δ (ratio of IC50 values against PI3Kα to PI3Kδ) (PI3Kα): 63
- IC50 (PI3Kδ): 77 nM
- β/δ (ratio of IC50 values against PI3Kβ to PI3Kδ) (PI3Kβ): >129
- γ/δ (ratio of IC50 values against PI3Kγ to PI3Kδ) (PI3Kγ): >129

SMILES: COc1ncc(-c2nc(N3CCOCC3)c3nc(OC4CN(C5CCCCC5)C4)n(C)c3n2)cc1NS(C)(=O)=O [Compound 19]
- α/δ (ratio of IC50 values against PI3Kα to PI3Kδ) (PI3Kα): 88
- IC50 (PI3Kδ): 5 nM

SMILES: COc1ncc(-c2nc(N3CCOCC3)nc3c(CN4CCC(N5CCC5)CC4)cc(F)cc23)cc1NS(C)(=O)=O [Compound 9]
- α/δ (ratio of IC50 values against PI3Kα to PI3Kδ) (PI3Kα): 233
- IC50 (PI3Kδ): 19 nM

SMILES: COc1ncc(-c2nc(N3CCOCC3)nc3c(CN4CCC(C(C)(C)O)CC4)cccc23)cc1NS(C)(=O)=O [Compound 1]
- α/δ (ratio of IC50 values against PI3Kα to PI3Kδ) (PI3Kα): 341
- IC50 (PI3Kδ): 7.6 nM
- IC50 [1]: 29.1 nM

SMILES: CC(C)(O)C1CCN(Cc2cnc3c(-c4cncc(NS(C)(=O)=O)c4)nc(N4CCOCC4)cn23)CC1 [Compound 13]
- α/δ (ratio of IC50 values against PI3Kα to PI3Kδ) (PI3Kα): >42
- IC50 (PI3Kδ): 239 nM

SMILES: COc1ncc(-c2nc(N3CCOCC3)c3nc(OC4CCOCC4)n(C)c3n2)cc1NS(C)(=O)=O [Compound 20]
- α/δ (ratio of IC50 values against PI3Kα to PI3Kδ) (PI3Kα): 15
- IC50 (PI3Kδ): 4.6 nM

SMILES: C[C@@H](O)C(=O)N1CCN(Cc2cccc3c(-c4cnc(N)nc4)nc(N4CCOCC4)nc23)CC1 [Compound 4]
- α/δ (ratio of IC50 values against PI3Kα to PI3Kδ) (PI3Kα): 2
- IC50 (PI3Kδ): 45 nM

SMILES: COc1ncc(-c2nc(N3CCOCC3)c3sc(CN4CCC(C(C)(C)O)CC4)c(C)c3n2)cc1NS(C)(=O)=O [Compound 17]
- α/δ (ratio of IC50 values against PI3Kα to PI3Kδ) (PI3Kα): 38
- IC50 (PI3Kδ): 3.4 nM

SMILES: CS(=O)(=O)N1CCN(Cc2cnn3c(-c4cccc5[nH]ncc45)cc(N4CCOCC4)nc23)CC1 [Compound 11]
- α/δ (ratio of IC50 values against PI3Kα to PI3Kδ) (PI3Kα): 2.3
- IC50 (PI3Kδ): 606 nM

SMILES: Nc1ncc(-c2nc(N3CCOCC3)nc3c(CN4CCN(C(=O)CO)CC4)cc(F)cc23)cn1 [Compound 22]
- α/δ (ratio of IC50 values against PI3Kα to PI3Kδ) (PI3Kα): 2
- IC50 (PI3Kδ): 31 nM

SMILES: COc1ncc(-c2nc(N3CCOCC3)nc3c(CN4CC(C(C)(C)O)C4)cc(F)cc23)cc1NS(C)(=O)=O [Compound 27]
- α/δ (ratio of IC50 values against PI3Kα to PI3Kδ) (PI3Kα): 83
- IC50 (PI3Kδ): 24 nM
- IC50 [1]: 230 nM

SMILES: CN1CCN(Cc2cnc3c(-c4cncc(NS(C)(=O)=O)c4)nc(N4CCOCC4)cn23)CC1 [Compound 14]
- α/δ (ratio of IC50 values against PI3Kα to PI3Kδ) (PI3Kα): >9
- IC50 (PI3Kδ): 1040 nM

SMILES: COc1ncc(-c2nc(N3CCOCC3)nc3c(OC4CN(C5CCOCC5)C4)cc(F)cc23)cc1NS(C)(=O)=O [Compound 38]
- α/δ (ratio of IC50 values against PI3Kα to PI3Kδ) (PI3Kα): 28
- IC50 (PI3Kδ): 15.8 nM
- IC50 [1]: 32 nM

SMILES: COc1ncc(-c2nc(N3CCOCC3)nc3c(CN4CCC[C@H]4C(C)(C)O)cc(F)cc23)cc1NS(C)(=O)=O [Compound 26]
- α/δ (ratio of IC50 values against PI3Kα to PI3Kδ) (PI3Kα): 32
- IC50 (PI3Kδ): 87 nM

SMILES: COc1ncc(-c2nc(N3CCOCC3)nc3c(CN4CCC(OC)CC4)cccc23)cc1NS(C)(=O)=O [Compound 2]
- α/δ (ratio of IC50 values against PI3Kα to PI3Kδ) (PI3Kα): 368
- IC50 (PI3Kδ): 17 nM
- IC50 [1]: 92.7 nM

SMILES: CS(=O)(=O)N1CCN(Cc2cccc3c(-c4cnc(N)nc4)nc(N4CCOCC4)nc23)CC1 [Compound 5]
- α/δ (ratio of IC50 values against PI3Kα to PI3Kδ) (PI3Kα): 1
- IC50 (PI3Kδ): 58.6 nM

SMILES: COc1ncc(-c2nc(N3CCOCC3)c3nc(OC4CCN(C5COC5)CC4)n(C)c3n2)cc1NS(C)(=O)=O [Compound 18]
- α/δ (ratio of IC50 values against PI3Kα to PI3Kδ) (PI3Kα): 11
- IC50 (PI3Kδ): 4.2 nM
- IC50 [1]: 15.2 nM

SMILES: COc1ncc(-c2nc(N3CCOCC3)nc3c(OCC4CCOCC4)cc(F)cc23)cc1NS(C)(=O)=O [Compound 31]
- α/δ (ratio of IC50 values against PI3Kα to PI3Kδ) (PI3Kα): 24
- IC50 (PI3Kδ): 27 nM

SMILES: COc1ncc(-c2nc(N3CCOCC3)c3cc(CN4CCC(N5CCCCC5)CC4)ccc3n2)cc1NS(C)(=O)=O [Compound 15]
- α/δ (ratio of IC50 values against PI3Kα to PI3Kδ) (PI3Kα): 23
- IC50 (PI3Kδ): 345 nM
- β/δ (ratio of IC50 values against PI3Kβ to PI3Kδ) (PI3Kβ): >29
- γ/δ (ratio of IC50 values against PI3Kγ to PI3Kδ) (PI3Kγ): >29

SMILES: COc1ncc(-c2nc(N3CCOCC3)nc3c(OC4CC(C(C)(C)O)C4)cc(F)cc23)cc1NS(C)(=O)=O (centres unmarked) [Compound 37]
- α/δ (ratio of IC50 values against PI3Kα to PI3Kδ) (PI3Kα): 42
- IC50 (PI3Kδ): 117 nM
- β/δ (ratio of IC50 values against PI3Kβ to PI3Kδ) (PI3Kβ): >85
- γ/δ (ratio of IC50 values against PI3Kγ to PI3Kδ) (PI3Kγ): >85
